The values below are quoted from earlier work in patent publication US5177064A, “Targeted drug delivery via phosphonate derivatives” (University of Florida, priority 1990, dated 1993).

Values after ≈ are worked out from the molar mass of the structure shown.

The conditions of data set [1]: human, in vivo.
In data set [2] the test system is encephalitis.
The conditions of data set [3]: at 37° C.
The subject of data set [4] is HCMV. Conditions: in vitro; read-out: IC50 against HCMV.
Data set [5] relates to encephalitis. Conditions: treatment of encephalitis in vitro and in vivo.
For data set [6] the following is noted: humans.
The mark [7] stands for this setting: intravenous, biphasic elimination.

As usually defined, the log P is a log measure of how a compound divides between an organic and an aqueous phase. As to `NC(=O)c1ncn([C@@H]2O[C@H](CO)[C@@H](O)[C@H]2O)n1` [ribavirin, 1-β-D-ribofuranosyl-1,2,4-triazole-3-carboxamide], the “log P” value is on record as 2.06.

With `Cc1cn([C@H]2C[C@H](N=[N+]=[N-])[C@@H](CO)O2)c(=O)[nH]c1=O` [AZT, azidothymidine], the bioavailability result in data set [1] is “about 60%”.

Regarding `Cc1cn([C@@H]2O[C@H](CO)[C@@H](O)[C@@H]2F)c(=O)[nH]c1=O` [FMAU], the “doses producing irreversible neurological damage” value in data set [2] (in vivo) was “greater than 32 mg”. In addition, the therapeutic index entry in data set [2] (treating encephalitis) is reported as “greater than 3,000”.

For `Nc1ncnc2c1ncn2[C@@H]1O[C@H](CO)[C@@H](O)[C@@H]1O` [Ara-A, 9-β-D-arabinofuranosyladenine], the “log P (octanol/water)” value (octanol/water) was “negative”.

Usually aqueous solubility stands for the concentration that dissolves in the medium under given conditions. In general, IC50 refers to the point on the concentration scale where inhibition reaches its midpoint. In the case of `Nc1nc(O)c2ncn(COC(CO)CO)c2n1` [DHPG, Dihydroxypropoxymethylgaunine], in data set [3], the aqueous solubility is 5.1 mg/mL (≈ 20 mM). Further, the IC50 in data set [4] is about 2500 nM. Besides, the “effectiveness relative to acyclovir” value in data set [5] is reported as “at least 100 fold”. The “drug excreted unchanged by the kidneys” value in data set [6] was 99%. Further, in data set [6] (based on urinary excretion), the oral bioavailability is listed as 3-4.6%. For the same molecule, in data set [6] (setting [7]), the α-phase half-life was 13.8 min and the β-phase half-life is 2.53 h.
